Assay results as given in patent US11725011B2, “Bicyclic urea kinase inhibitors and uses thereof” (The Broad Institute, Inc., priority 2016, dated 2023).

Tests used:
SIK1 = SIK1 (Homo sapiens (Human), UniProt P57059); experiment: Percent activity against SIK1 at 1 μM; format: biochemical
AAK1 = AAK1 (Homo sapiens (Human), UniProt Q2M2I8); experiment: KINOMEscan; format: binding; conditions: 1 uM
ACVR2A = ACVR2A (Homo sapiens (Human), UniProt P27037); experiment: KINOMEscan; format: binding; conditions: 1 uM
ACVR2A, sequence (P27037 20-513): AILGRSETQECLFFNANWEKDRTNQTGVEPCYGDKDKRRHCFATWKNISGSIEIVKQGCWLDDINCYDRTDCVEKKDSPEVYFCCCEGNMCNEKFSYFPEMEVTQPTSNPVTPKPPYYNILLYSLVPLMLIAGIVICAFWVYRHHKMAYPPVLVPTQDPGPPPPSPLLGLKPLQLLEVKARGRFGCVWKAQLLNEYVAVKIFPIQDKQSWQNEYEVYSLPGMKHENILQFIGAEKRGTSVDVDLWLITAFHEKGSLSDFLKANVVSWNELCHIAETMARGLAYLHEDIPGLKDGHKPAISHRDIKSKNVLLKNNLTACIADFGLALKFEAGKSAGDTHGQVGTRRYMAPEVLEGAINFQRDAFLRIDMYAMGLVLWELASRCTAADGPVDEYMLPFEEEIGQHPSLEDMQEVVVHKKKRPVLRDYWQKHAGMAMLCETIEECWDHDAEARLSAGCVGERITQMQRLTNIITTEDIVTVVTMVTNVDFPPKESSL

BRSK2 = BRSK2 (Homo sapiens (Human), UniProt Q8IWQ3); experiment: KINOMEscan; format: binding; conditions: 1 uM
CDK9 = CDK9 (Homo sapiens (Human), UniProt P50750); experiment: KINOMEscan; format: binding; conditions: 1 uM
DCAMKL2 = DCAMKL2 (Homo sapiens (Human), UniProt Q8N568); experiment: KINOMEscan; format: binding; conditions: 1 uM
DYRK2 = DYRK2 (Homo sapiens (Human), UniProt Q92630); experiment: KINOMEscan; format: binding; conditions: 1 uM
DYRK2, sequence (Q92630 whole entry): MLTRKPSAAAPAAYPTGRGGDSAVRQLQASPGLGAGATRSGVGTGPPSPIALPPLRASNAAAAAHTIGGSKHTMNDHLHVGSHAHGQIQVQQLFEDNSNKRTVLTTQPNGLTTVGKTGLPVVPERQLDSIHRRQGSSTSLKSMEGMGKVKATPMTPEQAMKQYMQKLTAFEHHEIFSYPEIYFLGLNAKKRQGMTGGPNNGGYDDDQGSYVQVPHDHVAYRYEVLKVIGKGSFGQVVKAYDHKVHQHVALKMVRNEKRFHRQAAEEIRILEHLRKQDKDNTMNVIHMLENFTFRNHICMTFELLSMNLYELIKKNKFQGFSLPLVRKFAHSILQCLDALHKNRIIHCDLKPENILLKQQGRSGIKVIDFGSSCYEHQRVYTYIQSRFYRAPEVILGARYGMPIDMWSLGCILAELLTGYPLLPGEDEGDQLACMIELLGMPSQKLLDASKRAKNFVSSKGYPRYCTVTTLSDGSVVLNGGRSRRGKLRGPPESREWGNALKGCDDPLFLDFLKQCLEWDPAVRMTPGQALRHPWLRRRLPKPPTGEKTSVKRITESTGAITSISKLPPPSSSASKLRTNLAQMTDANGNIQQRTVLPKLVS

EGFR (G719C) = EGFR (G719C) (Homo sapiens (Human), UniProt P00533, G719C); experiment: KINOMEscan; format: binding; conditions: 1 uM
EPHA3 = EPHA3 (Homo sapiens (Human), UniProt P29320); experiment: KINOMEscan; format: binding; conditions: 1 uM
ERBB3 = ERBB3 (Homo sapiens (Human), UniProt P21860); experiment: KINOMEscan; format: binding; conditions: 1 uM
ERN1 = ERN1 (Homo sapiens (Human), UniProt O75460); experiment: KINOMEscan; format: binding; conditions: 1 uM
FGFR4 = FGFR4 (Homo sapiens (Human), UniProt P22455); experiment: KINOMEscan; format: binding; conditions: 1 uM
FLT3 (D835H) = FLT3 (D835H) (Homo sapiens (Human), UniProt P36888, D835H); experiment: KINOMEscan; format: binding; conditions: 1 uM
GCN2 (Kin.Dom.2, S808G) = GCN2 (Kin.Dom.2, S808G) (Homo sapiens (Human), UniProt Q9P2K8, S808G); experiment: KINOMEscan; format: binding; conditions: 1 uM
HIPK2 = HIPK2 (Homo sapiens (Human), UniProt Q9H2X6); experiment: KINOMEscan; format: binding; conditions: 1 uM
IKK-beta = IKK-beta (Homo sapiens (Human), UniProt O14920); experiment: KINOMEscan; format: binding; conditions: 1 uM
IKK-beta, sequence (O14920 whole entry): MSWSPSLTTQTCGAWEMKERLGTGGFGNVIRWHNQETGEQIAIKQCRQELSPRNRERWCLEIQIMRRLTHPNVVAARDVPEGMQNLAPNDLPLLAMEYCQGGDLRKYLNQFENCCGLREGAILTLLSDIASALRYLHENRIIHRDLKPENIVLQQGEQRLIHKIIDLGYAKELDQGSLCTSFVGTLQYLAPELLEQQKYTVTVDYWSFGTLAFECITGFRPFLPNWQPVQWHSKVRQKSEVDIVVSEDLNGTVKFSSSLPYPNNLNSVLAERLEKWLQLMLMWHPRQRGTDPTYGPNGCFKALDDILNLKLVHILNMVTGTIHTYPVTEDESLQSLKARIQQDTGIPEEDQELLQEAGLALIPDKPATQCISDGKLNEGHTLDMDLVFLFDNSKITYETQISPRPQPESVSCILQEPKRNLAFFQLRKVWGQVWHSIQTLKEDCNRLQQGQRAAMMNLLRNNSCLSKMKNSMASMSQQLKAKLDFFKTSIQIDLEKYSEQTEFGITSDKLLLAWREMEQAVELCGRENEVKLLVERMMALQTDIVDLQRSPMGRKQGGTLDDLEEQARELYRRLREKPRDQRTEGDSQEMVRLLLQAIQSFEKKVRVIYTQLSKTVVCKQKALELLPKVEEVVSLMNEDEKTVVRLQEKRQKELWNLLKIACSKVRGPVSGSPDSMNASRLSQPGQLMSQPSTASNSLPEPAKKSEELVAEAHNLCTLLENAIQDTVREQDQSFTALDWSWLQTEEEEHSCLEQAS

JNK3 = JNK3 (Homo sapiens (Human), UniProt P53779); experiment: KINOMEscan; format: binding; conditions: 1 uM
MAP3K1 = MAP3K1 (Homo sapiens (Human), UniProt Q13233); experiment: KINOMEscan; format: binding; conditions: 1 uM
MAP3K1, sequence (Q13233 whole entry): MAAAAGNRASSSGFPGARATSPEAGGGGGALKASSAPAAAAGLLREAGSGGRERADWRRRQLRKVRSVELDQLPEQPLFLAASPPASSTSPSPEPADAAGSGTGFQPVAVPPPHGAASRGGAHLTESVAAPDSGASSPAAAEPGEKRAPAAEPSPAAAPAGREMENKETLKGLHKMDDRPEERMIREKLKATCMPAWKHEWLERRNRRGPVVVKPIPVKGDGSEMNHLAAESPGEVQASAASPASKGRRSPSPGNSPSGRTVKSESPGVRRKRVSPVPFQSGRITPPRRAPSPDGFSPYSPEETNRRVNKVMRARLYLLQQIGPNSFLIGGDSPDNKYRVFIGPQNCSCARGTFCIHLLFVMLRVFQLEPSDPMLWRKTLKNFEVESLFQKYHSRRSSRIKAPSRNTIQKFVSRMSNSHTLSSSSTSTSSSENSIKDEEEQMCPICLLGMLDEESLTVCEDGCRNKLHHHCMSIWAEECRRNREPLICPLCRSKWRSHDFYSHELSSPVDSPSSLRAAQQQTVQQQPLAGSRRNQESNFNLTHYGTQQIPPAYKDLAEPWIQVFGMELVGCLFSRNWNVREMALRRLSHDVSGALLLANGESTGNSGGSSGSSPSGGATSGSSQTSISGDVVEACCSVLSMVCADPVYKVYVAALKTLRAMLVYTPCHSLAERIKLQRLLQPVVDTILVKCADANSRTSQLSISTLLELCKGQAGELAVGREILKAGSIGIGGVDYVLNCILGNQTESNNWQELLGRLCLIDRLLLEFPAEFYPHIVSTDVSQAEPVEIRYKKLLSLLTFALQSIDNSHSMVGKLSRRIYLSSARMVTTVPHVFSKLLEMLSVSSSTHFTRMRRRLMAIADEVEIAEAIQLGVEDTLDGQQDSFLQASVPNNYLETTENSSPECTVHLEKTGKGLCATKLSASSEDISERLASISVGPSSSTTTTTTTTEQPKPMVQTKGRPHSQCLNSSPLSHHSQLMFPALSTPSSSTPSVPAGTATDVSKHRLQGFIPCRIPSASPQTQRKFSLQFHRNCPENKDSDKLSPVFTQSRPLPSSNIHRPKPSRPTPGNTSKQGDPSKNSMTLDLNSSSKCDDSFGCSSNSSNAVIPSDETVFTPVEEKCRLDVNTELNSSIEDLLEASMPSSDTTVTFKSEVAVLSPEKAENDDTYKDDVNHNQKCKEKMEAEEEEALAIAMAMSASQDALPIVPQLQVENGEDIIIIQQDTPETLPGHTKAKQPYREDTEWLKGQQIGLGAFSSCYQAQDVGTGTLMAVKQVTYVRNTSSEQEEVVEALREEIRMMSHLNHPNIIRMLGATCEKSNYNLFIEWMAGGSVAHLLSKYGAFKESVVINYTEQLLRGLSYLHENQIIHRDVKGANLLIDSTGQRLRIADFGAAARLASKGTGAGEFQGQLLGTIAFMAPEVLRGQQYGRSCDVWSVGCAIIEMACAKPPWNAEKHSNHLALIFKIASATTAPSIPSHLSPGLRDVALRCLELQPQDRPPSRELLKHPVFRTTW

MARK4 = MARK4 (Homo sapiens (Human), UniProt Q96L34); experiment: KINOMEscan; format: binding; conditions: 1 uM
MEK1 = MEK1 (Homo sapiens (Human), UniProt Q02750); experiment: KINOMEscan; format: binding; conditions: 1 uM
MEK5 = MEK5 (Homo sapiens (Human), UniProt Q13163); experiment: KINOMEscan; format: binding; conditions: 1 uM
MEK6 = MEK6 (Homo sapiens (Human), UniProt P52564); experiment: KINOMEscan; format: binding; conditions: 1 uM
NEK3 = NEK3 (Homo sapiens (Human), UniProt P51956); experiment: KINOMEscan; format: binding; conditions: 1 uM
NEK7 = NEK7 (Homo sapiens (Human), UniProt Q8TDX7); experiment: KINOMEscan; format: binding; conditions: 1 uM
NEK7, sequence (Q8TDX7 whole entry): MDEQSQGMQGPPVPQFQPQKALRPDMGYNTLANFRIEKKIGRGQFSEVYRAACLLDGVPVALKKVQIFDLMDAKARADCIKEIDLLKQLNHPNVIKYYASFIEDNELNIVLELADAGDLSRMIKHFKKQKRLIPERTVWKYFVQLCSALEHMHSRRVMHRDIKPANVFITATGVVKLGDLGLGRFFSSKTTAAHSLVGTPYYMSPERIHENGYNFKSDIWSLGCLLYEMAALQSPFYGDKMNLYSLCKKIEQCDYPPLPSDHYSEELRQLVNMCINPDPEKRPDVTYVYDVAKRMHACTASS

NIK = NIK (Homo sapiens (Human), UniProt Q99558); experiment: KINOMEscan; format: binding; conditions: 1 uM
NLK = NLK (Homo sapiens (Human), UniProt Q9UBE8); experiment: KINOMEscan; format: binding; conditions: 1 uM
NLK, sequence (Q9UBE8 whole entry): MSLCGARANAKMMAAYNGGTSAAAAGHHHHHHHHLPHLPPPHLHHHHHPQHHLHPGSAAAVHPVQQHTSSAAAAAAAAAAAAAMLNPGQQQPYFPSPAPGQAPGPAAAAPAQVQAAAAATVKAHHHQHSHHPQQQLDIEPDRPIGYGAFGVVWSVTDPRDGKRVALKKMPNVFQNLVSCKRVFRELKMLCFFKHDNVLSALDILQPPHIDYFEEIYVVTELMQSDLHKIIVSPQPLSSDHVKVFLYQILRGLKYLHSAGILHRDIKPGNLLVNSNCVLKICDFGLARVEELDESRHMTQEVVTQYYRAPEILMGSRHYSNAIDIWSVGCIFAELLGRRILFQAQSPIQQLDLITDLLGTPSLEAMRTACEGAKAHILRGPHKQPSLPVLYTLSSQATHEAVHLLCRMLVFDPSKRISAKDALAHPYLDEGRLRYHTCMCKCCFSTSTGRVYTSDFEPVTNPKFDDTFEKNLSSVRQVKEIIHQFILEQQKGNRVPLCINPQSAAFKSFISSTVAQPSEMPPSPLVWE

OSR1 = OSR1 (Homo sapiens (Human), UniProt O95747); experiment: KINOMEscan; format: binding; conditions: 1 uM
p38-beta = p38-beta (Homo sapiens (Human), UniProt Q15759); experiment: KINOMEscan; format: binding; conditions: 1 uM
PIK3CA (E542K) = PIK3CA (E542K) (Homo sapiens (Human), UniProt P42336, E542K); experiment: KINOMEscan; format: binding; conditions: 1 uM
PIK3CA (H1047Y) = PIK3CA (H1047Y) (Homo sapiens (Human), UniProt P42336, H1047Y); experiment: KINOMEscan; format: binding; conditions: 1 uM
PIK3CB = PIK3CB (Homo sapiens (Human), UniProt P42338); experiment: KINOMEscan; format: binding; conditions: 1 uM
PIP5K1C = PIP5K1C (Homo sapiens (Human), UniProt O60331); experiment: KINOMEscan; format: binding; conditions: 1 uM
PIP5K2B = PIP5K2B (Homo sapiens (Human), UniProt P78356); experiment: KINOMEscan; format: binding; conditions: 1 uM
PRKCH = PRKCH (Homo sapiens (Human), UniProt P24723); experiment: KINOMEscan; format: binding; conditions: 1 uM
RET = RET (Homo sapiens (Human), UniProt P07949); experiment: KINOMEscan; format: binding; conditions: 1 uM
SYK = SYK (Homo sapiens (Human), UniProt P43405); experiment: KINOMEscan; format: binding; conditions: 1 uM
TBK1 = TBK1 (Homo sapiens (Human), UniProt Q9UHD2); experiment: KINOMEscan; format: binding; conditions: 1 uM
TNK1 = TNK1 (Homo sapiens (Human), UniProt Q13470); experiment: KINOMEscan; format: binding; conditions: 1 uM
TNK2 = TNK2 (Homo sapiens (Human), UniProt Q07912); experiment: KINOMEscan; format: binding; conditions: 1 uM
TRKA = TRKA (Homo sapiens (Human), UniProt P04629); experiment: KINOMEscan; format: binding; conditions: 1 uM
YANK2 = YANK2 (Homo sapiens (Human), UniProt Q9NY57); experiment: KINOMEscan; format: binding; conditions: 1 uM

SIK1, sequence (P57059 whole entry): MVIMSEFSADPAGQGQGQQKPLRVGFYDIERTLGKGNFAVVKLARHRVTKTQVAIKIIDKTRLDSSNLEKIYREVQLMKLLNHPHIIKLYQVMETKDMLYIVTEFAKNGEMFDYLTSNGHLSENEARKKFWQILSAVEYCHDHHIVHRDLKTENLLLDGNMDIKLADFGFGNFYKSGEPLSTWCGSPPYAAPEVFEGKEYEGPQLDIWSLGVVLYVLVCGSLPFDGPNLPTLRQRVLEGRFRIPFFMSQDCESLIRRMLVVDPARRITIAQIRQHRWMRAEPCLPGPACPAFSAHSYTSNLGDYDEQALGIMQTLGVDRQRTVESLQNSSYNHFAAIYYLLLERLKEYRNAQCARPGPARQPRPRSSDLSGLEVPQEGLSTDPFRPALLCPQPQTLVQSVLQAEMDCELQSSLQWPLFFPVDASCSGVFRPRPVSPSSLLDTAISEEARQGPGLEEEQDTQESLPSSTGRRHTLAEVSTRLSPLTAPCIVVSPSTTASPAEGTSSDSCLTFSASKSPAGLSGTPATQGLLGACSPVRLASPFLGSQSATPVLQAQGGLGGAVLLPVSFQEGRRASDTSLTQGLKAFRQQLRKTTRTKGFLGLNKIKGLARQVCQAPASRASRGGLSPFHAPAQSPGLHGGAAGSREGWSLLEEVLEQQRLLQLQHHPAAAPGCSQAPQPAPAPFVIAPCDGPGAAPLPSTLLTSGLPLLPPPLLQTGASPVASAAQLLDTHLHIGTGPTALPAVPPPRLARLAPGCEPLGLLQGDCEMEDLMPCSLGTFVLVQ

SMILES: COc1ccc(N2C(=O)N(c3c(C)cccc3C)Cc3cnc(Nc4ccc(N5CCN(C)CC5)cc4)nc32)c(OC)c1 [HG-11-136-01]
- Enzyme activity at 1 μM (%) SIK1 (SIK1; 1 μM): 19.1%
- SIK1 % ACTIVITY (SIK1; compound at 1 μM, approximate Km for ATP): 19.1%
- KINOMEscan AAK1 (AAK1): 13
- KINOMEscan ACVR2A (ACVR2A): 5
- KINOMEscan BRSK2 (BRSK2): 91
- KINOMEscan CDK9 (CDK9): 91
- KINOMEscan DCAMKL2 (DCAMKL2): 88
- KINOMEscan DYRK2 (DYRK2): 5
- KINOMEscan EGFR (G719C) (EGFR (G719C)): 0.1
- KINOMEscan EPHA3 (EPHA3): 0.8
- KINOMEscan ERBB3 (ERBB3): 0
- KINOMEscan ERN1 (ERN1): 13
- KINOMEscan FGFR4 (FGFR4): 2
- KINOMEscan FLT3 (D835H) (FLT3 (D835H)): 16
- KINOMEscan GCN2 (Kin.Dom.2, S808G) (GCN2 (Kin.Dom.2, S808G)): 0.75
- KINOMEscan HIPK2 (HIPK2): 0.95
- KINOMEscan IKK-beta (IKK-beta): 80
- KINOMEscan JNK3 (JNK3): 32
- KINOMEscan MAP3K1 (MAP3K1): 73
- KINOMEscan MARK4 (MARK4): 32
- KINOMEscan MEK1 (MEK1): 0.55
- KINOMEscan MEK5 (MEK5): 0.1
- KINOMEscan MEK6 (MEK6): 30
- KINOMEscan NEK3 (NEK3): 39
- KINOMEscan NEK7 (NEK7): 100
- KINOMEscan NIK (NIK): 36
- KINOMEscan NLK (NLK): 7.6
- KINOMEscan OSR1 (OSR1): 49
- KINOMEscan p38-beta (p38-beta): 3.1
- KINOMEscan PIK3CA (E542K) (PIK3CA (E542K)): 88
- KINOMEscan PIK3CA (H1047Y) (PIK3CA (H1047Y)): 63
- KINOMEscan PIK3CB (PIK3CB): 92
- KINOMEscan PIP5K1C (PIP5K1C): 70
- KINOMEscan PIP5K2B (PIP5K2B): 27
- KINOMEscan PRKCH (PRKCH): 100
- KINOMEscan RET (RET): 0
- KINOMEscan SYK (SYK): 1.2
- KINOMEscan TBK1 (TBK1): 37
- KINOMEscan TNK1 (TNK1): 0.9
- KINOMEscan TNK2 (TNK2): 0.15
- KINOMEscan TRKA (TRKA): 41
- KINOMEscan YANK2 (YANK2): 1.8
